Measurements as given in patent US8377470B2, “Non-gelatin soft capsule system” (R.P. Scherer Technologies, LLC, priority 2004, dated 2013).

Legend:
[1] = Film stability with concentrated salt formulations, starch/gelling carrageenan film; format: physicochemical; conditions: concentrated suspension/solution in film depression, open exposure
Description: (§1) The films were formed and spread over a holding device such that small depressions could be formed in the surface of the film. A depression was formed and subsequently filled with the concentrated suspension of the salt formulation. Simultaneously, two acidic solutions were tested by the same protocol. […] This is well-known in the art to be an extremely aggressive mode of stability testing, resulting in acceleration in the interaction between shell and fill of over 260 times normal rates.

[2] = Film stability with concentrated salt formulations, gelatin film; format: physicochemical; conditions: concentrated suspension/solution in film depression, open exposure
Description: as §1

[3] = sodium or potassium hydroxide required to solubilize acetaminophen at greater than about 27% by weight; cited from earlier work

SMILES	Test Result After 24 Hours at 40° C.-75% RH, Starch/Gelling Carrageenan film [1]	Test Result After 24 Hours at 40° C.-75% RH, Gelatin film [2]	pH of the PEG solution [3]
CC(=O)O.N [Ammonium acetate]	Pass	Fail	–
O=C(O)CC(O)(CC(=O)O)C(=O)O [Citric acid]	Fail	Fail	–
O=C([O-])c1ccccc1C(=O)O.[K+] [Potassium Hydrogen Phthalate]	Pass	Fail	–
O=P([O-])([O-])O.[K+].[K+] [Potassium PO4-(dibasic)]	Pass	Fail	–
CC(=O)[O-].[K+] [Potassium acetate]	Pass	Fail	–
O=C([O-])CC(O)(CC(=O)[O-])C(=O)[O-].[K+].[K+].[K+] [Potassium citrate]	Pass	Fail	–
O=P([O-])([O-])[O-].[Na+].[Na+].[Na+] [Sodium PO4-(tribasic)]	Pass	Fail	–
O=C(O)C(O)C(O)C(=O)O (centres unmarked) [Tartaric acid]	Fail	Fail	–
CC(=O)Nc1ccc(O)cc1 [acetaminophen, N-acetyl-p-aminophenol]	–	–	greater than 12
